Assay results taken from ChEMBL document CHEMBL4270532, “Molecular dynamics simulations of viral neuraminidase inhibitors with the human neuraminidase enzymes: Insights into isoenzyme selectivity” (Bioorg Med Chem, 2018).

Columns and labels:
Sialidase-4 [1] = biological target: T1, Sialidase-4 (Homo sapiens, UniProt Q8WWR8); experiment: Inhibition of MBP-fused recombinant human neuraminidase 4 expressed in Escherichia coli using 4MU-NANA as substrate preincubated for 15 mins followed by substrate addition measured every 1 min for 30 mins by fluorescence analysis
T1 sequence (Q8WWR8 whole entry): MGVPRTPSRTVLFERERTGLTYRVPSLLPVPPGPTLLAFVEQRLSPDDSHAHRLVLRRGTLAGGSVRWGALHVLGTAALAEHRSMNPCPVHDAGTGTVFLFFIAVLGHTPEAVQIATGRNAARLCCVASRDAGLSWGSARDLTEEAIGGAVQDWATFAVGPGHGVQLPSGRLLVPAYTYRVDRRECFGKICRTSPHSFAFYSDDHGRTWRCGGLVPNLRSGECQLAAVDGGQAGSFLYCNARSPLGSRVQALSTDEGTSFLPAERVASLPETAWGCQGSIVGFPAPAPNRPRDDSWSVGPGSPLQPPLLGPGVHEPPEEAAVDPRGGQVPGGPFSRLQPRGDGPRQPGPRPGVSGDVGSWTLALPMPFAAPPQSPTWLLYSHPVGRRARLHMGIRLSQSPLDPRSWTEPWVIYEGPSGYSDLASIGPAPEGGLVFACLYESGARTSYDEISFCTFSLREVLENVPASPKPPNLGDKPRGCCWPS

Sialidase-4 [2] = biological target: T1, Sialidase-4; experiment: Inhibition of MBP-fused recombinant human neuraminidase 4 expressed in Escherichia coli using 4MU-NANA as substrate preincubated for 15 mins followed by substrate addition measured after 30 mins by fluorescence analysis
Sialidase-3 [3] = biological target: T2, Sialidase-3 (Homo sapiens, UniProt Q9UQ49); experiment: Inhibition of MBP-fused recombinant human neuraminidase 3 expressed in Escherichia coli using 4MU-NANA as substrate preincubated for 15 mins followed by substrate addition measured after 30 mins by fluorescence analysis
T2 sequence (Q9UQ49 whole entry): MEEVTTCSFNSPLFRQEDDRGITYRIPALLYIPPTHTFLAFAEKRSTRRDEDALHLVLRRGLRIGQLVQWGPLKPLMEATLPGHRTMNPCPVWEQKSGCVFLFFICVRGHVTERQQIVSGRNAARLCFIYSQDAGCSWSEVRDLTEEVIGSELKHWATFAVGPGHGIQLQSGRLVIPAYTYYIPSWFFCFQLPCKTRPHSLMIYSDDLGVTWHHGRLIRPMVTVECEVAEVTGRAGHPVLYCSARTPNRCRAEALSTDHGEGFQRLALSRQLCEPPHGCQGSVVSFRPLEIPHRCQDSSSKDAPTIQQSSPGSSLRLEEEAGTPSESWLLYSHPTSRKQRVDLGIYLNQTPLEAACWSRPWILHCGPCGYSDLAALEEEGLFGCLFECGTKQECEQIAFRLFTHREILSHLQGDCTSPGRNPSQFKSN

Sialidase-1 [4] = biological target: T3, Sialidase-1 (Homo sapiens, UniProt Q99519); experiment: Inhibition of recombinant His6-tagged human neuraminidase 1 expressed in HEK293 cells using 4MU-NANA as substrate preincubated for 15 mins followed by substrate addition measured after 30 mins by fluorescence analysis
Sialidase-1 [5] = biological target: T3, Sialidase-1; experiment: Inhibition of recombinant His6-tagged human neuraminidase 1 expressed in HEK293 cells using 4MU-NANA as substrate preincubated for 15 mins followed by substrate addition measured every 1 min for 30 mins by fluorescence analysis
Sialidase-3 [6] = biological target: T2, Sialidase-3; experiment: Inhibition of MBP-fused recombinant human neuraminidase 3 expressed in Escherichia coli using 4MU-NANA as substrate preincubated for 15 mins followed by substrate addition measured every 1 min for 30 mins by fluorescence analysis

| SMILES | Ki (Sialidase-4 [1]) | IC50 (Sialidase-4 [2]) | IC50 (Sialidase-3 [3]) | IC50 (Sialidase-1 [4]) | Ki (Sialidase-1 [5]) | Ki (Sialidase-3 [6]) |
| --- | --- | --- | --- | --- | --- | --- |
| CC(=O)N[C@H]1[C@H]([C@H](O)[C@H](O)CO)OC(O)(C(=O)O)C[C@@H]1O (some centres undefined) | Not Active | > 500 µM | > 500 µM | > 500 µM | Not Active | Not Active |
| CCOC(=O)C1=C[C@@H](OC(CC)CC)[C@H](NC(C)=O)[C@@H](N)C1 [OSELTAMIVIR] | Not Active | > 500 µM | > 500 µM | > 500 µM | Not Active | Not Active |
| CCC(CC)[C@H](NC(C)=O)[C@@H]1[C@H](O)[C@@H](C(=O)O)C[C@H]1NC(=N)N [PERAMIVIR ANHYDROUS] | Not Active | > 500 µM | > 500 µM | > 500 µM | Not Active | Not Active |
| CC(=O)N[C@H]1[C@H]([C@H](O)[C@H](O)CO)OC(C(=O)O)=C[C@@H]1NC(=N)N [ZANAMIVIR] | – | – | – | – | Not Active | – |
